# Assay results: paper PMC6792352, “Limited Chemical Structural Diversity Found to Modulate Thyroid Hormone Receptor in the Tox21 Chemical Library” (Environmental Health Perspectives, 2019)
# Read-outs that look alike come from different tables or passages of the source.
# What was measured:
# in vitro [1] = details: rat, gh3-tre-luc cells, AC50 (uM) modified / 1000
# [2] = tested on: Tox21 cell viability assays (different cell types); assay: Global cytotoxicity: eighteen Tox21 cell viability assays; format: cell-based
# [3] = as above; format: cell-based
# [4] = tested on: thyroid hormone receptor (endogenous TRα and TRβ); assay: GH3-TRE-Ag primary qHTS, luciferase reporter, agonist mode (TOX21_TR_LUC_GH3_Agonist, aeid 803); format: cell-based, rat; details: for AC50: read-out: GH3-TRE-Ag AC50; for GH3-TRE-Ag AC50 hitc: hit call from tcpl
# in vitro [5] = details: rat
# [6] = tested on: thyroid hormone receptor (endogenous TRα and TRβ); assay: GH3-TRE-Antag primary qHTS, luciferase reporter, antagonist mode with 1 nM T3 (TOX21_TR_LUC_GH3_Antagonist, aeid 804); format: cell-based, rat
# [7] = GH3-TRE-Via cell viability, CellTiter-Fluor (TOX21_TR_LUC_GH3_Antagonist_viability, aeid 805); details: rat
# GH3-TRE-Luc cell line [8] = assay: as above
# [9] = target: T1, human TRβ ligand-binding domain (Homo sapiens, UniProt P10828); assay: TRb-bla agonist mammalian one-hybrid beta-lactamase assay (TOX21_TRB_BLA_Agonist_Followup_ratio, aeid 2236); format: cell-based; parameters: host or cells: GeneBLAzer UAS-bla HEK 293T; details: for AC50: HEK 293T one-hybrid, agonist mode, read-out: TRb-bla-Ag AC50; for TRb-bla hitc: hit call from tcpl, agonist; for Emax: read-out: EMax (% of Control) trb-bla-agonist-followup-1
# T1 sequence (P10828 217-461 limits assumed): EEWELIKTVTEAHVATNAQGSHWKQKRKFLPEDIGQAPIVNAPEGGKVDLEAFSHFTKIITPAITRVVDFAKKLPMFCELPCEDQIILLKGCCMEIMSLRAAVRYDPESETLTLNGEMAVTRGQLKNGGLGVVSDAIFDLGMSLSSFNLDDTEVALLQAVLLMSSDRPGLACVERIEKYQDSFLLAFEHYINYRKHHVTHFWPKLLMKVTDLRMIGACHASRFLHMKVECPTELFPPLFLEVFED
# [10] = target: T2, TRα ligand-binding domain (Homo sapiens, UniProt P10827); assay: TRa-coa LanthaScreen TR-FRET coactivator (SRC-2 peptide) recruitment, agonist (TOX21_TRA_COA_Agonist_Followup_ratio, aeid 2230); format: biochemical; details: for AC50: cell-free coactivator recruitment, read-out: TRa-coa-Ag AC50; for TRa-coa hitc: hit call from tcpl, agonist; for Emax: read-out: EMax (% of Control) tra-coa-agonist-followup-1
# T2 construct: the receptor LBDs expressed as glutathione S-transferase (GST) fusion proteins; purchased
# T2 sequence (P10827 163-410 isoform P10827-2 limits assumed, other chains not shown): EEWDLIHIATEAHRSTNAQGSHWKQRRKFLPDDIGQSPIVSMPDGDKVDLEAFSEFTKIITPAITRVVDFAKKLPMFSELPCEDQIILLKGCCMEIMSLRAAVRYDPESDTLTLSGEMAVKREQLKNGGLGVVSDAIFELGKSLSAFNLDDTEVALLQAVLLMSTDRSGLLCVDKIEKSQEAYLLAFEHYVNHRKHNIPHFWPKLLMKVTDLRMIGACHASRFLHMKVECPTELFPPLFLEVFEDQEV
# [11] = tested on: thyroid hormone receptor (endogenous TRα and TRβ); assay: GH3-TRE-Ag-Followup confirmation (TOX21_TR_LUC_GH3_Agonist_Followup, aeid 2226); format: cell-based, rat; details: for AC50: confirmation, agonist mode, read-out: GH3-TRE-Ag-Followup AC50; for GH3-TRE-Ag-Followup hitc: hit call from tcpl
# GH3-TRE-Luc cell line [12] = details: rat, 24 h
# [13] = target: T1, human TRβ ligand-binding domain; assay: TRb-coa LanthaScreen TR-FRET coactivator (SRC-2 peptide) recruitment, agonist (TOX21_TRB_COA_Agonist_Followup_ratio, aeid 2244); format: biochemical; parameters: host or cells: GeneBLAzer UAS-bla HEK 293T; details: for AC50: cell-free coactivator recruitment, read-out: TRb-coa-Ag AC50; for TRb-coa hitc: hit call from tcpl, agonist; for Emax: read-out: EMax (% of Control) trb-coa-agonist-followup-1
# [14] = tested on: thyroid hormone receptor (TR); assay: Classification of TR actives across characterization assays (TR-Ag / RXR-Ag; TR model binary); details: for Categorization Code: TR agonist characterization; for Classification: TR-Ag = TR agonist, RXR-Ag = RXR agonist
# How it was run: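 GH3-TRE qHTS agonist, antagonist and viability modes over 8,305 compounds; 84 candidates rescreened in GH3-TRE-Ag, TRβ- and RXRα-UAS-bla HEK 293T one-hybrid assays, HEK293T viability, and TRα/TRβ coactivator recruitment. Actives classified binary after removing pharmaceuticals.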
# human RXRα = target: T3, human RXRα (Homo sapiens, UniProt P19793); assay: RXRa-bla-Ag mammalian one-hybrid beta-lactamase assay (TOX21_TR_RXR_BLA_Agonist_Followup_ratio, aeid 2253); format: cell-based
# T3 construct: host or cells: GeneBLAzer UAS-bla HEK 293T
# T3 sequence (P19793 227-458 limits assumed): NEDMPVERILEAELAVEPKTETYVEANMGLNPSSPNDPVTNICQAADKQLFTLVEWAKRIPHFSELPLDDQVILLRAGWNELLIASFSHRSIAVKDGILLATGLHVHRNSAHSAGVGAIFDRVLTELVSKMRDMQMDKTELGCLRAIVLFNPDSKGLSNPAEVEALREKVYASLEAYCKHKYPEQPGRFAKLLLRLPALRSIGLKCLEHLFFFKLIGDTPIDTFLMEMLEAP
# [15] = antagonist candidates, inactive samples arbitrarily set to AC50=1,000 μM
# [16] = antagonist mode, 1 nM T3; read-out: GH3-TRE-Antag AC50
# [17] = percentage of 18 Tox21 viability assays with hitc=1
# [18] = median over 18 Tox21 cell viability assays, inactive set to 1,000, read-out: Global cytotoxicity AC50 median
# [19] = primary qHTS, agonist mode, 24 h, top concentration 92 μM
compound,measurement,setting,value
Cc1cccc(Nc2ccccc2C(=O)O)c1C [Mefenamic acid],CC50 at 24 h,in vitro [1],> 50 µM
same,Active in global cytotoxicity assays (%),[2],4.5%
same,active rate in Tox21 viability/cytotoxicity assays,[2],4.5%
same,AC50,[3],50.8 µM
same,AC50,[4]; [15],> 92 µM
same,AC50 at 24 h,in vitro [5],> 92 µM
same,AC50,[6]; [16],19.5 µM
"CCCCCOc1ccc(C2SC(=O)NC2=O)cc1OCC (centres unmarked) [Risarestat, reference compound]",Active in global cytotoxicity assays (%),[2]; [17],11.9%
same,AC50,[3]; [18],16.4 µM
same,AC50,[4]; [15],> 92 µM
same,AC50 at 24 h,[7],> 92 µM
same,cytotoxicity in GH3 viability assay,GH3-TRE-Luc cell line [8],lacked cytotoxicity
CCCCCCCCCCCCn1cc[n+](C)c1.[I-] [1-Dodecyl-3-methylimidazolium iodide],Active in global cytotoxicity assays (%),[2]; [17],74.2%
same,AC50,[3]; [18],41.1 µM
same,AC50,[4]; [15],> 92 µM
same,AC50,in vitro [5],5.1 µM
same,AC50,[6]; [16],1.33 µM
CN(C)c1ccc(/N=N/c2ccccc2C(=O)O)cc1 [Methyl red],Active in global cytotoxicity assays (%),[2],48.5%
same,AC50,[3],48.5 µM
same,AC50,[4]; [15],> 92 µM
same,AC50 at 24 h,in vitro [5],14.6 µM
same,AC50,[6]; [16],8.79 µM
COc1cccc2c1C(=O)c1c(O)c3c(c(O)c1C2=O)C[C@@](O)(C(C)=O)C[C@@H]3O[C@H]1C[C@H](N)[C@H](O)[C@H](C)O1 [Daunorubicin],Active in global cytotoxicity assays (%),[2],66.1%
same,active rate in Tox21 viability/cytotoxicity assays,[2],two-thirds
same,AC50,[3],10.5 µM
same,AC50,[4],> 92 µM
same,AC50 at 24 h,in vitro [5],1.01 µM
same,AC50,"[6]; read-out: GH3-TRE-Antag AC50; antagonist mode, 1 nM T3",0.7 µM
"C=C(c1ccc(C(=O)O)cc1)c1cc2c(cc1C)C(C)(C)CCC2(C)C [Bexarotene, reference compound]",AC50,[9],> 92 µM
same,TRb-bla hitc,[9],0
same,Emax,[9],11.8%
same,GLOBAL CYTOTOXICITY cytotox.median,[2],23.9
same,GLOBAL CYTOTOXICITY cytotox.number_Active,[2],15
same,AC50,[3],23.9 µM
same,AC50,[10],> 92 µM
same,TRa-coa hitc,[10],0
same,Emax,[10],-0.4%
same,EMax (% of Control) gh3-tre-agonist-followup-1_agonist,[11],37.1 % of Control
same,AC50,[11],0.017 µM
same,GH3-TRE-Ag-Followup hitc,[11],1
same,TR_LUC_GH3_Antagonist_viability hitc,GH3-TRE-Luc cell line [12],1
same,EMax (% of Control) gh3-tre-agonist,[4],26.0 % of Control
same,GH3-TRE-Ag AC50 hitc,[4],0
same,AC50,[4]; [19],0.0077 µM
same,AC50,[13],> 92 µM
same,TRb-coa hitc,[13],0
same,Emax,[13],-0.427%
same,Categorization Code,[14],RXR-Ag
same,Classification,[14],RXR-Ag
same,AC50 at 24 h,in vitro [5],10.4 µM
C=C1CC[C@@H]2[C@](C)(CO)[C@H](O)CC[C@@]2(C)[C@@H]1C/C=C1/C(=O)OC[C@H]1O [Andrographolide],AC50,[4]; [15],> 92 µM
same,AC50 at 24 h,[7],19.4 µM
same,AC50,[6]; [16],24.6 µM
"O=C(O)CCNC(=O)c1ccccc1 [Betamipron, reference compound]",AC50,[9],14 µM
same,TRb-bla hitc,[9],1
same,Emax,[9],85.5%
same,GLOBAL CYTOTOXICITY cytotox.median,[2],>92
same,GLOBAL CYTOTOXICITY cytotox.number_Active,[2],0
same,AC50,[3],> 92 µM
same,AC50,[10],10.4 µM
same,TRa-coa hitc,[10],1
same,Emax,[10],120%
same,EMax (% of Control) gh3-tre-agonist-followup-1_agonist,[11],90.7 % of Control
same,AC50,[11],1.68 µM
same,GH3-TRE-Ag-Followup hitc,[11],1
same,TR_LUC_GH3_Antagonist_viability hitc,GH3-TRE-Luc cell line [12],0
same,EMax (% of Control) gh3-tre-agonist,[4],72.8 % of Control
same,activity in GH3-TRE agonist assay,[4],concentration-dependent activity
same,GH3-TRE-Ag AC50 hitc,[4],1
same,AC50,[4]; [19],11.8 µM
same,activity in RXRα-bla-Ag assay,human RXRα,lack of activity
same,AC50,"human RXRα; HEK 293T one-hybrid, agonist mode, inactive set to 1,000, read-out: RXRa-bla-Ag AC50",> 92 µM
same,tr-followup-rxr-bla-agonist-1 hitc,human RXRα; hit call from tcpl,0
same,Emax,human RXRα; read-out: EMax (% of Control) tr-followup-rxr-bla-agonist-1,2.9%
same,AC50,[13],11.8 µM
same,TRb-coa hitc,[13],1
same,Emax,[13],30.8%
same,Categorization Code,[14],TR-Ag
same,Classification,[14],TR-Ag
same,AC50 at 24 h,in vitro [5],> 92 µM
"c1cc(N(CC2CO2)CC2CO2)ccc1Cc1ccc(N(CC2CO2)CC2CO2)cc1 (centres unmarked) [4,4ʹ-Methylenebis(N,N-diglycidylaniline)]",Active in global cytotoxicity assays (%),[2]; [17],59.1%
same,AC50,[3]; [18],45.3 µM
same,AC50,[4]; [15],> 92 µM
same,AC50,in vitro [5],11.1 µM
same,AC50,[6]; [16],8.03 µM
"CCCc1c(OCCCCc2nnn[nH]2)ccc(C(C)=O)c1O [Tomelukast, reference compound]",Active in global cytotoxicity assays (%),[2]; [17],9.1%
same,AC50,[3]; [18],14.4 µM
same,AC50,[4]; [15],> 92 µM
same,AC50 at 24 h,[7],> 92 µM
CC(C)C[C@H](NC(=O)[C@H](CCc1ccccc1)NC(=O)CN1CCOCC1)C(=O)N[C@@H](Cc1ccccc1)C(=O)N[C@@H](CC(C)C)C(=O)[C@@]1(C)CO1 [Carfilzomib],Active in global cytotoxicity assays (%),[2],64.4%
same,active rate in Tox21 viability/cytotoxicity assays,[2],64%
same,AC50,[3],0.46 µM
same,AC50,[4]; [15],> 92 µM
same,AC50 at 24 h,in vitro [5],0.037 µM
same,AC50,[6]; [16],0.025 µM
COC(=O)C[C@](O)(CCCC(C)(C)O)C(=O)O[C@@H]1C(OC)=C[C@]23CCCN2CCc2cc4c(cc2[C@H]13)OCO4 [Omacetaxine mepesuccinate],CC50 at 24 h,in vitro [1],0.0816 µM
same,Active in global cytotoxicity assays (%),[2],60.0%
same,AC50,[3],0.06 µM
same,AC50,[4]; [15],> 92 µM
same,AC50 at 24 h,in vitro [5],0.057 µM
same,AC50,[6]; [16],0.029 µM
